Values quoted from earlier work, collected in US20060069068A1, “Methods and compositions for the treatment of diseases characterized by pathological calcification” (Nanobac Pharmaceuticals, Inc., priority 2004, published 2006).

What was measured:
[1] = both in vitro and in vivo; comparator etidronate
Nanobacteria = conditions: background statement

Compound	potency relative to etidronate [1]	killing of Nanobacteria (Nanobacteria)
NCCCC(O)(P(=O)(O)O)P(=O)(O)O [alendronate]	approximately 700 fold	–
Penicillin	–	cannot be killed
